# Laboratory results as given in patent US5424309A, “N-substituted acylamino acid compounds, process for their production and their use” (Banyu Pharmaceutical Co., Ltd., priority 1988, dated 1995).
# Target: T1, human plasma renin (Homo sapiens, UniProt P00797)
# T1 construct: from tissue; host or cells: human plasma
# T1 sequence (P00797 67-406): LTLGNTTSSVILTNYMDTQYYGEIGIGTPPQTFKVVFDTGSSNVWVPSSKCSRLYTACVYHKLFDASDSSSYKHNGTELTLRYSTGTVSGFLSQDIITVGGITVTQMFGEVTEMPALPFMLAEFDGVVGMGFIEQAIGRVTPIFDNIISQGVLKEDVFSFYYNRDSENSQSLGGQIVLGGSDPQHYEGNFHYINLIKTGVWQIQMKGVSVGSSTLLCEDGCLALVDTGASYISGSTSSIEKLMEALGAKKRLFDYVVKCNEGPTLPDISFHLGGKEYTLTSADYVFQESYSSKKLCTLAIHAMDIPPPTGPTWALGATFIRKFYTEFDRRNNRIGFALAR
# Experiment: Renin inhibiting activities (human plasma, angiotensin I by radio immunoassay)
# Format: biochemical
# Details: pH7.4, 37° C., one hour, read-out: IC50 (50 % inhibition concentrations), renin inhibiting activity
# Procedure: To 156 μl of a 0.2M sodium phosphate buffer solution (pH7.4), 40 μl of a solution mixture of 34 mM 8-hydroxyquinoline and 100 mM disodium ethylenediamine tetraacetate, 4 μl of dimethyl sulfoxide or a dimethyl sulfoxide solution of test compound and 200 μl of human plasma were added and reacted at 37° C. for one hour. Then, pepstatin was added thereto to terminate the reaction, and the amount of the resulting angiotension I was measured by radio immunoassay whereby the inhibiting activity was determined.
row,Structure (SMILES),IC50 [nM]
1,"CCCC[C@H](NC(=O)[C@H](Cc1cccc2ccccc12)CS(=O)(=O)CC(O)COC(=O)C(C)(C)C)C(=O)N[C@@H](CC1CCCCC1)[C@@H](O)[C@@H](O)CN1CCOCC1 (mixture of isomers) [Example 2, (2S,3R,4S)-4-{L-N-[(2S)-3-[(2RS)-3-pivaloyloxy-2-hydroxypropyl]sulfonyl-2-(1-naphthylmethyl)propionyl]norleucyl}amino-5-cyclohexyl-1-morpholino-2,3-pentanediol]",7.2
2,"CCCC[C@H](NC(=O)[C@H](Cc1cccc2ccccc12)C[S+]([O-])CC(COC(C)=O)OC(C)=O)C(=O)N[C@@H](CC1CCCCC1)[C@@H](O)[C@@H](O)CN1CCOCC1 (mixture of isomers) [Example 6 (having a high Rf value), (2S,3R,4S)-4-{L-N-[(2S)-3-[(2RS)-2,3-diacetoxypropyl]sulfinyl-2-(1-naphthylmethyl)propionyl]norleucyl}amino-5-cyclohexyl-1-morpholino-2,3-pentanediol]",6
3,"CCCC[C@H](NC(=O)[C@H](Cc1cccc2ccccc12)C[S+]([O-])CC(COC(C)=O)OC(C)=O)C(=O)N[C@@H](CC1CCCCC1)[C@@H](O)[C@@H](O)CN1CCOCC1 (mixture of isomers) [Example 6 (having a low Rf value), (2S,3R,4S)-4-{L-N-[(2S)-3-[(2RS)-2,3-diacetoxypropyl]sulfinyl-2-(1-naphthylmethyl)propionyl]norleucyl}amino-5-cyclohexyl-1-morpholino-2,3-pentanediol]",4.1
4,"CCCC[C@H](NC(=O)[C@H](Cc1cccc2ccccc12)CS(=O)(=O)CC(COC(=O)CC)OC(=O)CC)C(=O)N[C@@H](CC1CCCCC1)[C@@H](O)[C@@H](O)CN1CCOCC1 (mixture of isomers) [Example 8, (2S,3R,4S)-4-{L-N-[(2S)-3-[(2RS)-2,3-dipropionyloxypropyl]sulfonyl,-2-(1-naphthylmethyl)propionyl]norleucyl}amino-5-cyclohexyl-1-morpholino-2,3-pentanediol]",3.3
5,"CCCC[C@H](NC(=O)[C@H](Cc1cccc2ccccc12)CS(=O)(=O)CC(O)COC(=O)CC)C(=O)N[C@@H](CC1CCCCC1)[C@@H](O)[C@@H](O)CN1CCOCC1 (mixture of isomers) [Example 12, (2S,3R,4S)-4-{L-N-[(2S)-3-[(2RS)-3-propionyloxy-2-hydroxypropyl]sulfonyl-2-(1-naphthylmethyl)propionyl]norleucyl}amino-5-cyclohexyl-1-morpholino-2,3-pentanediol]",4.3
6,"CCCC[C@H](NC(=O)[C@H](Cc1cccc2ccccc12)CS(=O)(=O)CC(COC(=O)CC)OC(C)=O)C(=O)N[C@@H](CC1CCCCC1)[C@@H](O)[C@@H](O)CN1CCOCC1 (mixture of isomers) [Example 13, (2S,3R,4S)-4-{L-N-[(2S)-3-[(2RS)-2-acetoxy-3-propionyloxypropyl]sulfonyl-2-(1-naphthylmethyl)propionyl]norleucyl}amino-5-cyclohexyl-1-morpholino-2,3-pentanediol]",2
7,"CCCC[C@H](NC(=O)[C@H](Cc1cccc2ccccc12)CS(=O)(=O)CC(COC(=O)CC)OC)C(=O)N[C@@H](CC1CCCCC1)[C@@H](O)[C@@H](O)CN1CCOCC1 (mixture of isomers) [Example 14, (2S,3R,4S)-4-{L-N-[(2S)-3-[(2RS)-2-methoxy-3-propionyloxypropyl]sulfonyl-2-(1-naphthylmethyl)propionyl]norleucyl}amino-5-cyclohexyl-1-morpholino-2,3-pentanediol]",2
8,"CCCC[C@H](NC(=O)[C@H](Cc1ccccc1)CS(=O)(=O)CC(COC(C)=O)OC(C)=O)C(=O)N[C@@H](CC1CCCCC1)[C@@H](O)[C@@H](O)CN1CCOCC1 (mixture of isomers) [Example 15, (2S,3R,4S)-4-{L-N-[(2S)-3-[(2RS)-2,3-diacetoxypropyl]sulfonyl-2-benzylpropionyl]norleucyl}amino-5-cyclohexyl-1-morpholino-2,3-pentanediol]",7.3
9,"CCCC[C@H](NC(=O)[C@@H](CSCC(COC(C)=O)OC(C)=O)Cc1ccccc1)C(=O)N[C@@H](CC1CCCCC1)[C@@H](O)[C@@H](O)CN1CCOCC1 (mixture of isomers) [Example 16, (2S,3R,4S)-4-{L-N-[(2S)-3-[(2RS)-2,3-diacetoxypropyl]thio-2-benzylpropionyl]norleucyl}amino-5-cyclohexyl-1-morpholino-2,3-pentanediol]",6
10,"CCCC[C@H](NC(=O)[C@H](Cc1ccccc1)CS(=O)(=O)CC(COC(=O)CC)OC(=O)CC)C(=O)N[C@@H](CC1CCCCC1)[C@@H](O)[C@@H](O)CN1CCOCC1 (mixture of isomers) [Example 17, (2S,3R,4S)-4-{L-N-[(2S)-3-[(2RS)-2,3-dipropionyloxypropyl]sulfonyl-2-benzylpropionyl]norleucyl}amino-5-cyclohexyl-1-morpholino-2,3-pentanediol]",8.3
11,"CCCC[C@H](NC(=O)[C@@H](CSCC(COC(C)=O)OC)Cc1cccc2ccccc12)C(=O)N[C@@H](CC1CCCCC1)[C@@H](O)[C@@H](O)CN1CCOCC1 (mixture of isomers) [Example 27, (2S,3R,4S)-4-{L-N-[(2S)-3-[(2RS)-3-acetoxy-2-methoxypropyl]thio-2-(1-naphthylmethyl)propionyl]norleucyl}amino-5-cyclohexyl-1-morpholino-2,3-pentanediol]",2.2
12,"CCCC[C@H](NC(=O)[C@H](Cc1cccc2ccccc12)CS(=O)(=O)CC(COC)OC(C)=O)C(=O)N[C@@H](CC1CCCCC1)[C@@H](O)[C@@H](O)CN1CCOCC1 (mixture of isomers) [Example 28, (2S,3R,4S)-4-{L-N-[(2S)-3-[(2RS)-2-acetoxy-3-methoxypropyl]sulfonyl-2-(1-naphthylmethyl)propionyl]norleucyl}amino-5-cyclohexyl-1-morpholino-2,3-pentanediol]",1.9
13,"CCCC[C@H](NC(=O)[C@H](Cc1cccc2ccccc12)CS(=O)(=O)CC(COC(C)=O)OC)C(=O)N[C@@H](CC1CCCCC1)[C@@H](O)[C@@H](O)CN1CCOCC1 (mixture of isomers) [Example 29, (2S,3R,4S)-4-{L-N-[(2S)-3-[(2RS)-3-acetoxy-2-methoxypropyl]sulfonyl-2-(1-naphthylmethyl)propionyl]norleucyl}amino-5-cyclohexyl-1-morpholino-2,3-pentanediol]",0.76
14,"CCCC[C@H](NC(=O)[C@H](Cc1cccc2ccccc12)CS(=O)(=O)CC(COC(C)=O)OCC)C(=O)N[C@@H](CC1CCCCC1)[C@@H](O)[C@@H](O)CN1CCOCC1 (mixture of isomers) [Example 43, (2S,3R,4S)-4-{L-N-[(2S)-3-[(2RS)-3-acetoxy-2-ethoxypropyl]sulfonyl-2-(1-naphthylmethyl)propionyl]norleucyl}amino-5-cyclohexyl-1-morpholino-2,3-pentanediol]",2.4
15,"CCCC[C@H](NC(=O)[C@H](Cc1cccc2ccccc12)C[S+]([O-])c1ccc(OC(C)=O)cc1)C(=O)N[C@@H](CC1CCCCC1)[C@@H](O)[C@@H](O)CN1CCOCC1 (single isomer, unassigned) [Example 20 (having a low Rf value)]",4
16,"CCCC[C@H](NC(=O)[C@H](Cc1cccc2ccccc12)CS(=O)(=O)C1CCC(OC(C)=O)C1)C(=O)N[C@@H](CC1CCCCC1)[C@@H](O)[C@@H](O)CN1CCOCC1 (single isomer, unassigned) [Example 33 (having a high Rf value)]",2.2
